We go through 26 molecules from patent publication US20260248772A1, “NOVEL SULFANONE DERIVATIVE OR PHARMACEUTICALLY ACCEPTABLE SALT THEREOF, AND USE THEREOF” (KOREA INSTITUTE OF SCIENCE AND TECHNOLOGY, priority 2022, published 2026).

For orientation: EC50 means the concentration giving half of the maximal effect.

Data set [1] concerns BV-2 mouse microglial cells. The experiment in a line: NO (nitric oxide) inhibitory activity in LPS-treated microglial cells. Type of data set: cell-based. The note with it: LPS 1 μg/ml, 24 hours, read-out: Amount of NO (% of control).
Data set [2] has as its target CYP2C19 (Homo sapiens, UniProt P33261). Briefly: in vitro. Particulars: human liver microsomes, pH 7.4, probe S-mephenytoin 100 μM (in five-substrate cocktail). In general terms: Liver microsomes are a subcellular fraction often used to study metabolism.
Data set [3] deals with CYP2D6 (Homo sapiens, UniProt P10635). Briefly: in vitro. The note with it: human liver microsomes, pH 7.4, probe Dextromethorphan 5 μM (in five-substrate cocktail).
Data set [4] addresses CYP2C9 (Homo sapiens, UniProt P11712). The experiment in a line: in vitro. Particulars: human liver microsomes, pH 7.4, probe Diclofenac 10 μM (in five-substrate cocktail).
In data set [5] the target is T1, CYP1A2 (Homo sapiens, UniProt P05177).
T1 sequence (P05177 1-516): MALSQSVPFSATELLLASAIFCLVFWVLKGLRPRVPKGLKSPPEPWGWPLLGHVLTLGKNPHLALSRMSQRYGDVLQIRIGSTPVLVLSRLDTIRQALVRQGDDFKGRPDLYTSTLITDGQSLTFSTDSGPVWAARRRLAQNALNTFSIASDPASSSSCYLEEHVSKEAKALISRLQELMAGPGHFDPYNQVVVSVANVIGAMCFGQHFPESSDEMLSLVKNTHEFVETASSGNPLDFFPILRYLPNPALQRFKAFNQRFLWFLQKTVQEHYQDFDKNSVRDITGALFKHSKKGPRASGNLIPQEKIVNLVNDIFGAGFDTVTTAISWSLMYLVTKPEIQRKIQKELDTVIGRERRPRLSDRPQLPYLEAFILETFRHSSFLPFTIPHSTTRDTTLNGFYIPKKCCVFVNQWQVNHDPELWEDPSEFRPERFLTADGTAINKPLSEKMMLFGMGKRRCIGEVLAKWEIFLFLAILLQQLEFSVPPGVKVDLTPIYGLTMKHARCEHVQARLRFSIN
Briefly: in vitro. Particulars: human liver microsomes, pH 7.4, probe Phenacetin 50 μM (in five-substrate cocktail).

The target in data set [6] is CYP3A4 (Homo sapiens, UniProt P08684). Briefly: in vitro. The note with it: human liver microsomes, pH 7.4, probe Midazolam […] (in five-substrate cocktail).
Data set [7] can be described thus: Metabolic stability using liver microsomes. Particulars: for drug remaining after incubation with microsomes: after 30 minutes; for Human (% remaining): liver microsomes, 30 minutes at 37° C. Type of data set: in vitro ADME, Human.
The test system of data set [8] is Nrf2. The experiment in a line: Nrf2 functional cell-based assay (DiscoveRx), luminescence. Particulars: U2OS cells; for EC50: 6 hours incubation, read-out: Nrf2 activation EC50.
The conditions of data set [9]: known; cited from earlier work.
Data set [10] can be described thus: Metabolic stability using liver microsomes. Type of data set: in vitro ADME, Mouse. The note with it: 30 minutes.
Data set [11] is described as follows: Metabolic stability using liver microsomes. Type of data set: in vitro ADME, Rat. The note with it: 30 minutes. The protocol:
Therefore, in order to predict the extent of drug metabolism by the liver, the main organ for drug metabolism, through in vitro experiments, the metabolic stability of drugs was evaluated using liver microsomes.
Then, an NADPH regeneration system solution was added thereto and the mixed solution was incubated at 37° C. for 30 minutes.

Where a name gives a salt, the structure may show the parent alone.

CYP3A4, sequence (P08684 whole entry): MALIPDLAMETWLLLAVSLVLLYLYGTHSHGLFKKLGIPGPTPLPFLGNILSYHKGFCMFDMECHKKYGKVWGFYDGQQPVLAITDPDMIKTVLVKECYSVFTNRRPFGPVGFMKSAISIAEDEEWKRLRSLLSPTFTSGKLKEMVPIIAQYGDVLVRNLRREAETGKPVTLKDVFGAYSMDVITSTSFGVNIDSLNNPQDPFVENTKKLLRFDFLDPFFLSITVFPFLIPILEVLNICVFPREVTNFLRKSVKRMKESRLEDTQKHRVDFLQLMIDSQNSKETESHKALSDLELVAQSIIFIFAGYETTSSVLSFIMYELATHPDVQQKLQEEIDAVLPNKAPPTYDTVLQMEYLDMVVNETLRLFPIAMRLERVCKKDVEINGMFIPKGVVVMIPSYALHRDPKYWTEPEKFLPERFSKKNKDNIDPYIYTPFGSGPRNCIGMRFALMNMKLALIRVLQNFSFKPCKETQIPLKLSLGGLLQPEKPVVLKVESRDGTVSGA
CYP2C19, sequence (P33261 whole entry): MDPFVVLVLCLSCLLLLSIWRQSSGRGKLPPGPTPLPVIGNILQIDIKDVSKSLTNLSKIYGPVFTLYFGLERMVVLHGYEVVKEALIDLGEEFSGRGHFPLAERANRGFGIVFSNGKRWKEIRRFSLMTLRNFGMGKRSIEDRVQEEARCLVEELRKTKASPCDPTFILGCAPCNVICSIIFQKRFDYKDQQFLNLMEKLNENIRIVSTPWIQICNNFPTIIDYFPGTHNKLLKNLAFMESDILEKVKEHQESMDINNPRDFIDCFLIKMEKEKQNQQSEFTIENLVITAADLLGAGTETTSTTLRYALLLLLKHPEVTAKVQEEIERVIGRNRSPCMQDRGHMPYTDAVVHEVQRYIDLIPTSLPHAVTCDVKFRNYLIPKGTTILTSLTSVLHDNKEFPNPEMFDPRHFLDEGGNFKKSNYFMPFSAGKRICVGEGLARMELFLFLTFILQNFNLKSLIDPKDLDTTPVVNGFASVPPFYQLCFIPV
CYP2D6, sequence (P10635 whole entry): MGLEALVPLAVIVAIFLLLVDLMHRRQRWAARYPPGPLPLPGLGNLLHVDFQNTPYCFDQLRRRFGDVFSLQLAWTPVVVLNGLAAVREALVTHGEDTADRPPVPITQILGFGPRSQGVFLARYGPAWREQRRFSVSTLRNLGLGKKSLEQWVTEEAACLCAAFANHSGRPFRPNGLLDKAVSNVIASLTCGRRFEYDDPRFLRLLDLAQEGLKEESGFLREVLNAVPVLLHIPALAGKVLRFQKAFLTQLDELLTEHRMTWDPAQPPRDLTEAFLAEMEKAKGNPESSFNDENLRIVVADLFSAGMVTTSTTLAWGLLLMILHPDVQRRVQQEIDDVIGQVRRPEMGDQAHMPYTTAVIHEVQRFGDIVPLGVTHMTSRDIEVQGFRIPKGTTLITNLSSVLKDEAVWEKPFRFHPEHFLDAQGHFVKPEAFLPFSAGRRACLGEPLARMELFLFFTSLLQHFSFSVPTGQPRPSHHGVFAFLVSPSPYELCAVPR
CYP2C9, sequence (P11712 whole entry): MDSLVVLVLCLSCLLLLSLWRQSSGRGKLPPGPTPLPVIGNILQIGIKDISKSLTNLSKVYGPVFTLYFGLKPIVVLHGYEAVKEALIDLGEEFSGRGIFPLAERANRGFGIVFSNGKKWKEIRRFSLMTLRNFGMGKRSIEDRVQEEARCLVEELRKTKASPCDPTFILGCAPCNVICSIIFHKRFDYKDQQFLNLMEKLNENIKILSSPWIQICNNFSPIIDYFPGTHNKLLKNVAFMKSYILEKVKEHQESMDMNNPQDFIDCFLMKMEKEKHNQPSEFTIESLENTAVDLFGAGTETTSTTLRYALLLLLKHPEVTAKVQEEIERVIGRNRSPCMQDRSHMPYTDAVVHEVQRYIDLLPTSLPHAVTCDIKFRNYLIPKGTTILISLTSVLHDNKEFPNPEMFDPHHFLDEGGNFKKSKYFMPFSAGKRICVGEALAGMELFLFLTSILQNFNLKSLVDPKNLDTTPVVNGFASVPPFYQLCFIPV

For the molecule `N=S(=O)(/C=C/c1ccccn1)c1ccccc1F` (stereo not drawn) [Compound 1-1, (E)-(2-Fluorophenyl)(imino)(2-(pyridin-2-yl)vinyl)-λ^6-sulfanone], the activity at 0.1 µM in [1] amounted to 97%. The activity at 1 µM in [1] is 74.2%. Further, the activity at 10 µM in [1] was less than 3%. The activity at 15 min, 10 µM in data set [2] is 66.9%; in data set [3] it was 82.7%; in data set [4] it was 85.7%; in data set [5], 87.8%; in data set [6] it was 121%.

Take `COc1ccc(S(=N)(=O)/C=C/c2ccccn2)cc1` (stereo not drawn) [Compound 1-2, (E)-Imino(4-methoxyphenyl)(2-(pyridin-2-yl)vinyl)-λ^6-sulfanone]: in data set [7], the “drug remaining after incubation with microsomes” value was “remained at a high concentration”. The activity at 0.1 µM in data set [1] was found to be 110%. Further, the activity at 1 µM in [1] turned out to be 115%. Moreover, in data set [1], the activity at 10 µM stood at 35.8%. The activity at 15 min, 10 µM in data set [2] amounted to 70.4%; in data set [3] it was 98.6%; in data set [4], 96.6%; in data set [5], 88.9%; in data set [6], 97.5%.

With `N=S(=O)(/C=C/c1ncccc1Cl)c1ccccc1Cl` (stereo not drawn) [Compound 1-4, (E)-(2-chlorophenyl)(2-(3-chloropyridin-2-yl)vinyl)(imino)-λ^6-sulfanone], in data set [7], the “drug remaining after incubation with microsomes” value is recorded as “remained at a high concentration”.

`N=S(=O)(/C=C/c1ncccc1F)c1ccccc1F` (stereo not drawn) [Compound 1-5, (E)-(2-fluorophenyl)(2-(3-fluoropyridin-2-yl)vinyl)(imino)-λ^6-sulfanone]: in data set [1], the activity at 0.1 µM amounted to 101%, the activity at 1 µM stood at 69.2% and the activity at 10 µM amounted to 7.96%.

For `COc1ccccc1S(=N)(=O)/C=C/c1ncccc1Cl` (stereo not drawn) [Compound 1-8, (E)-(2-(3-chloropyridin-2-yl)vinyl)(imino)(2-methoxyphenyl)-λ^6-sulfanone], the activity at 10 µM in data set [1] was 14.2%. Also, the activity at 15 min, 10 µM in [2] is 24.4%; in [3], 93.9%; in [4], 192%; in data set [5], 84.4%; in [6], 78.4%.

`COc1ccc(S(=N)(=O)/C=C/c2ncccc2Cl)cc1` (stereo not drawn) [Compound 1-10, (E)-(2-(3-chloropyridin-2-yl)vinyl)(imino)(4-methoxyphenyl)-λ^6-sulfanone]: the activity at 10 µM in data set [1] was less than 3%. Further, the activity at 15 min, 10 µM in [2] came to 6%; in [3], 112%; in data set [4], 133%; in data set [5] it was 103%; in [6] it was 109%.

Take `N=S(=O)(/C=C/c1cccnc1)c1ccccc1Cl` (stereo not drawn) [Compound 1-12, (E)-(2-chlorophenyl)(imino)(2-(pyridin-3-yl)vinyl)-λ^6-sulfanone]: the EC50 in [8] was greater than 10000 nM. In addition, the activity at 15 min, 10 µM turned out to be 68.2% in data set [2]; 94.4% in data set [3]; 87.1% in data set [4]; 86.8% in data set [5]; 104% in data set [6].

As to `N=S(=O)(/C=C/c1cccnc1Cl)c1ccccc1Cl` (stereo not drawn) [Compound 1-13, (E)-(2-chlorophenyl)(2-(2-chloropyridin-3-yl)vinyl)(imino)-λ^6-sulfanone], in [1], the activity at 10 µM was determined as 9.26%. In addition, the activity at 15 min, 10 µM in data set [2] turned out to be 27.8%; in data set [3], 95.7%; in data set [4] it was 169%; in data set [5] it was 93.3%; in [6] it was 59.8%.

`N=S(=O)(/C=C/c1cccc(Cl)c1)c1ccccn1` (stereo not drawn) [Compound 1-16, (E)-(3-chlorostyryl)(imino)(pyridin-2-yl)-λ^6-sulfanone]: the activity at 10 µM in [1] was less than 3%.

On to `N=S(=O)(/C=C/c1ccccc1C(F)(F)F)c1ccccn1` (stereo not drawn) [Compound 1-17, (E)-imino(pyridin-2-yl)(2-(trifluoromethyl)styryl)-λ^6-sulfanone], for which, in data set [1], the activity at 10 µM was less than 3%.

Consider `N=S(=O)(/C=C/c1ccccc1OC(F)(F)F)c1ccccn1` (stereo not drawn) [Compound 1-18, (E)-imino(pyridin-2-yl)(2-(trifluoromethoxy)styryl)-λ^6-sulfanone], for which, in data set [1], the activity at 10 µM was less than 3%.

Take `N=S(=O)(/C=C/c1ccc(Cl)cc1)c1ccccn1` (stereo not drawn) [Compound 1-20, (E)-(4-chlorostyryl)(imino)(pyridin-2-yl)-λ^6-sulfanone]: the activity at 10 µM in data set [1] amounted to 20.3%.

Consider `C[Si](C)(C)N=S(=O)(/C=C/c1ccccc1Cl)c1ccncc1F` (stereo not drawn) [Compound 1-46, (E)-(2-chlorostyryl)(3-fluoropyridin-4-yl)((trimethylsilyl)imino)-λ^6-sulfanone], for which the “Nrf2 activation effect compared with Sulforaphane” value in data set [8] is listed as “better Nrf2 activation effect than Sulforaphane”.

For the molecule `N=S(=O)(/C=C/c1ncccc1F)c1ccc(OCCCN2CCOCC2)cn1` (stereo not drawn) [Compound 1-53, (E)-(2-(3-fluoropyridin-2-yl)vinyl)(imino)(5-(3-morpholinopropoxy)pyridin-2-yl)-λ^6-sulfanone], the EC50 in data set [8] was 604 nM.

As for `COc1ccccc1S(=O)(/C=C/c1ccccc1Cl)=NC#N` (stereo not drawn) [Compound 1-57, (E)-N-((2-chlorostyryl)(2-methoxyphenyl)(oxo)-λ^6-sulfanylidene)cyanamide], in data set [8], the “Nrf2 activation effect compared with Sulforaphane” value is on record as “better Nrf2 activation effect than Sulforaphane”.

In the case of `COc1ccccc1S(=O)(/C=C/c1ncccc1Cl)=NC#N` (stereo not drawn) [Compound 1-58, (E)-N-((2-(3-chloropyridin-2-yl)vinyl)(2-methoxyphenyl)(oxo)-λ^6-sulfaneylidene)cyanamide], in [8], the EC50 was determined as 658 nM.

With `COC(=O)/C=C/C(=O)OC` [DMF, Dimethyl fumarate, reference compound], in data set [1], the activity at 0.1 µM was 113%, the activity at 1 µM came to 60% and the activity at 10 µM stood at 16.3%.

`C[S+]([O-])CCCCN=C=S` (stereo not drawn) [Sulforaphane, 1-isothiocyanato-4-methylsulfinylbutane]: the “concentration at which high toxicity is exhibited” value in data set [9] is given as no less than 5 M.

As for `O=S(=O)(/C=C/c1ncccc1Cl)c1ccccc1F` [drawing 157, reference compound], the activity at 15 min, 10 µM was found to be 16.6% in data set [2]; 86.1% in data set [3]; 45.5% in [4]; 95.8% in [5]; 105% in data set [6].

In the case of `O=S(=O)(/C=C/c1ncccc1Cl)c1ccccc1F` [drawing 173], the “Human (% remaining)” value in data set [7] stood at 72 % remaining. The “Mouse (% remaining)” value in data set [10] is 19 % remaining. Besides, the “Rat (% remaining)” value in data set [11] is 23 % remaining.

Regarding `O=S(=O)(/C=C/c1ccccn1)c1ccccc1F` [reference compound], the activity at 15 min, 10 µM in data set [2] came to 38.4%; in data set [3], 92.4%; in data set [4] it was 230%; in [5], 93%; in data set [6], 104%.

Turning to `COc1ccccc1S(=O)(=O)/C=C/c1ncccc1Cl` [reference compound], the activity at 15 min, 10 µM in data set [4] was 209%.

Take `COc1ccc(S(=O)(=O)/C=C/c2ncccc2Cl)cc1` [reference compound]: the activity at 15 min, 10 µM in data set [4] was determined as 196%.

Take `O=S(=O)(/C=C/c1cccnc1)c1ccccc1Cl` [reference compound]: the activity at 15 min, 10 µM in [2] turned out to be 33.4%; in data set [3], 101%; in data set [4], 118%; in [5], 84%; in data set [6] it was 74.2%.

Take `O=S(=O)(/C=C/c1cccnc1Cl)c1ccccc1Cl` [reference compound]: the activity at 15 min, 10 µM in data set [2] turned out to be 28.3%; in [3], 93.8%; in data set [4], 88.7%; in data set [5], 85.6%; in data set [6], 81.2%.

For `O=S(=O)(/C=C/c1ncccc1Cl)c1ccccc1Cl` [reference compound], the “Human (% remaining)” value in data set [7] is 66 % remaining. In data set [10], the “Mouse (% remaining)” value came out at 4.5 % remaining.
